# Data published in ChEMBL document CHEMBL1201862, “PubChem BioAssay data set” (2004).
# Active and inactive are the calls of the source.
# Key:
# [1] = target: Eukaryotic translation initiation factor 4E (Mus musculus, UniProt P63073); assay: blockers of eIF4G binding by eIF4E – biochemical, TR-FRET, dose response (AID 855); format: functional;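 also: potency for disrupting eIF4E binding to eIF4GI seen as loss of FRET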
# Leucine aminopeptidase = target: T1, Leucine aminopeptidase (Plasmodium falciparum 3D7, UniProt Q8IL11); assay: P. falciparum M17LAP inhibitors, primary screen, biochemical, fluorogenic H-Leu-NHMec substrate, 1536-well (AID 1619); format: functional
# T1 sequence (Q8IL11 whole entry): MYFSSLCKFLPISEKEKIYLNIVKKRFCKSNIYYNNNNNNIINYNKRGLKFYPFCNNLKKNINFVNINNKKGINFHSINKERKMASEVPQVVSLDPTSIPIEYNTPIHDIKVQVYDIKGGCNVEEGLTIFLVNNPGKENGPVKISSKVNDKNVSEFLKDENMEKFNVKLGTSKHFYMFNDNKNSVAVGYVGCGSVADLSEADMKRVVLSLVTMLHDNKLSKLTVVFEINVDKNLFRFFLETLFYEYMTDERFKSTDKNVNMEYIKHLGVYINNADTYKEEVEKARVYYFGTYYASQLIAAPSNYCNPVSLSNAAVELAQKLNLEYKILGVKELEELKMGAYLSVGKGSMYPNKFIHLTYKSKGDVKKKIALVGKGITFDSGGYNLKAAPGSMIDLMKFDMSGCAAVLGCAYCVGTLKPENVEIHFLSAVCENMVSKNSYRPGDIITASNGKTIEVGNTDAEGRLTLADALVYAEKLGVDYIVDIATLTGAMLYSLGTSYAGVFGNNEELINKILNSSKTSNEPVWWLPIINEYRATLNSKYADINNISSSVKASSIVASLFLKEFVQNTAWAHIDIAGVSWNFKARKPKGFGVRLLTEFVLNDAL
# [2] = viability of uninfected HEp-2 cells – cell-based, HTS, cytotoxicity control for RSV inhibitor project, dose response (AID 2410); format: functional; conditions: human respiratory syncytial virus
# cells [3] = assay: cells
# Vero [4] = assay: cells; format: functional, cell-based; conditions: Chlorocebus sabaeus
# [5] = target: T2, Calpain-2 catalytic subunit (Sus scrofa, UniProt P43367); assay: m-calpain protease blockers, concentration series – biochemical, fluorogenic peptide substrate, dose response (AID 1420); format: functional
# T2 sequence (P43367 whole entry): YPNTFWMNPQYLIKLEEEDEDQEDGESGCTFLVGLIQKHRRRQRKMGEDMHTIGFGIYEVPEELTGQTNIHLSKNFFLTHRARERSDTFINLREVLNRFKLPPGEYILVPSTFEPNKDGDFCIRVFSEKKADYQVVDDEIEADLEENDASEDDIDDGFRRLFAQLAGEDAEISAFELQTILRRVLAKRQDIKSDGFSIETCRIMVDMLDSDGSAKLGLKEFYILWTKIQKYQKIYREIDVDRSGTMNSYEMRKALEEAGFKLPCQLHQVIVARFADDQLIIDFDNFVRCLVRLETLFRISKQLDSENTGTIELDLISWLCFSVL
# Escherichia coli = assay: microbe, parasite or virus in culture
# Vero [6] = assay: cells; format: functional; conditions: Chlorocebus sabaeus
# Aminopeptidase N = target: T3, Aminopeptidase N (Plasmodium falciparum FcB1/Columbia, UniProt O96935); assay: malaria alanyl aminopeptidase activity blockers – biochemical, fluorogenic H-Leu-NHMec substrate, 1536-well (AID 1445); parameters: species or system Plasmodium falciparum 3D7, 3D7
# T3 sequence (O96935 whole entry): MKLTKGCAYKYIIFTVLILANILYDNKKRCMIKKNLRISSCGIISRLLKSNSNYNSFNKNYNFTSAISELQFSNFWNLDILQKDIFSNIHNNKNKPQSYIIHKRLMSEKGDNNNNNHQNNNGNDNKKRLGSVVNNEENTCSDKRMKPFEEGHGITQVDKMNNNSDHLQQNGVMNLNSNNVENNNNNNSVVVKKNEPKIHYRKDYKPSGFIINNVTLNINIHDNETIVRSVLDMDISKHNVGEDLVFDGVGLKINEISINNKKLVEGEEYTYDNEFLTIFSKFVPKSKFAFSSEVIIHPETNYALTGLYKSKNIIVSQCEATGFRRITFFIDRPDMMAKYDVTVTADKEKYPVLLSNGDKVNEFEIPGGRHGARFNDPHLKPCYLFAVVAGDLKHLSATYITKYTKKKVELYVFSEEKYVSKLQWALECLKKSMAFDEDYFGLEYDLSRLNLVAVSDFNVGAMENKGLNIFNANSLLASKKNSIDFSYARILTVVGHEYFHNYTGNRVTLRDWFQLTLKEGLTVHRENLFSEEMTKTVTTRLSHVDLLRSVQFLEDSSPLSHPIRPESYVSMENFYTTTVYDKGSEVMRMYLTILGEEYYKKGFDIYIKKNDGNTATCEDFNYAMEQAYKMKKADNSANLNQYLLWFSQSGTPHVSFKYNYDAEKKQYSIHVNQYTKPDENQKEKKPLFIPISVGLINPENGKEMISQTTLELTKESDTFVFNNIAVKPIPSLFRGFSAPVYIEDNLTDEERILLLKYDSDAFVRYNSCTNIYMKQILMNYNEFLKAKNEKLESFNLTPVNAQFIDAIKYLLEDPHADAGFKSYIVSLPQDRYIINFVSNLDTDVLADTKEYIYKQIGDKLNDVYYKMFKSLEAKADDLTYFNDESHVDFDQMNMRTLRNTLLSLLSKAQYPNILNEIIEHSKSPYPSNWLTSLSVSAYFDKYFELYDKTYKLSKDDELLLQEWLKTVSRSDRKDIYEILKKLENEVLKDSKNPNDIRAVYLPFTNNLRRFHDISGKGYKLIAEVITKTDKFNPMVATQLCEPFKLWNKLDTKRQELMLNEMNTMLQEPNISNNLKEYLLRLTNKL
# BJ [7] = assay: BJ-TERT fibroblast viability loss – cell-based, RAS-independent, luminescence, dose response (AID 1933); format: functional; conditions: Homo sapiens
# [8] = DRD fibroblast viability loss – cell-based, non-viral oncogenic, luminescence, dose response (AID 1934); format: functional; conditions: Homo sapiens
# BJ [9] = assay: cells; format: functional, cell-based, Homo sapiens; conditions: Homo sapiens, BJ
# BJ [10] = assay: BJ-TERT-LT-ST fibroblast viability loss – cell-based, RAS-independent, luminescence, dose response (AID 1935); format: functional; conditions: Homo sapiens;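 also: BJ fibroblasts immortalized with TERT plus LT and ST oncogenes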
# [11] = HEK-293T viability loss after treatment – luminescence, T-cell screen hits, cytotoxicity control for TCR NF-kB inhibitor project, dose response (AID 489026); format: functional, cell-based;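 also: cells exposed to compound about 14 hours before the viability readout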
# [12] = fluconazole-exposed Candida albicans growth modulators – fluorescence, retest, confirmation (AID 2467); format: functional, cell-based
# INS1 = assay: INS-1E survival protection against cytokine death – cell-based, luminescence, retest, dose response (AID 449756); format: functional; conditions: Rattus norvegicus;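 also: cell death triggered by IL-1 beta plus TNF-alpha plus IFN-gamma mixture; protective hits raise ATP signal compared with cytokine alone wells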
# HEK293 = assay: EBV LMP1 TES2 canonical NF-kB signalling blockers – cell-based, HEK293, luciferase, cherry-pick, dose response (AID 588343); format: functional; conditions: Homo sapiens
# [13] = NIH-3T3 fibroblast cytotoxicity, dose response, cytotoxicity control, cell-based, fluorescence, Alamar Blue, secondary assay (AID 2327); format: functional;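 also: NIH-3T3 mouse fibroblasts cultured with fluconazole at 8 µg/mL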
# cells [14] = format: functional, cell-based
# cells [15] = format: functional, cell-based; remark: listed apart in the source
# [16] = OVCAR-3 cell viability loss – plate reader, dry powder samples, PAX8 inhibitor project, dose response (AID 743044); format: functional, cell-based
# [17] = OVCAR8 cell viability loss – plate reader, dry powder samples, PAX8 project, dose response (AID 743197); format: functional, cell-based; conditions: OVCAR-8
# Paired box protein Pax-8 = Paired box protein Pax-8 (Homo sapiens, UniProt Q06710); assay: PAX8 transcriptional activity inhibition in RMG-I – RMG-I cells, luciferase, cherry-pick, dose response (AID 687027); format: functional, cell-based;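 also: luciferase reporter driven by Pax8 target thyroperoxidase promoter measured by SteadyGlo luminescence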
# Sequence of Paired box protein Pax-8 (Q06710 whole entry): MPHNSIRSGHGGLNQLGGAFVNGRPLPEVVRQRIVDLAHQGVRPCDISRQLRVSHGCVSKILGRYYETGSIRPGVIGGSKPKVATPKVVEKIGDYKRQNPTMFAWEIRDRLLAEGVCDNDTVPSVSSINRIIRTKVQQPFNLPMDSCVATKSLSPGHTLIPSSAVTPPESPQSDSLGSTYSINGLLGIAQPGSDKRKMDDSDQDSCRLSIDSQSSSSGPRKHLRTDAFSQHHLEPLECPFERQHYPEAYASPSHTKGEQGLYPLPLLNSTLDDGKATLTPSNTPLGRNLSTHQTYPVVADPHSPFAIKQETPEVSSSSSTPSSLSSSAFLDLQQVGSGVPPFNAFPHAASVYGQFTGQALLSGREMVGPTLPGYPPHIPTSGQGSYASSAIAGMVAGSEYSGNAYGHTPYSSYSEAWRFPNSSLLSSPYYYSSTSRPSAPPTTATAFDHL
# Sequence of Eukaryotic translation initiation factor 4E (P63073 whole entry): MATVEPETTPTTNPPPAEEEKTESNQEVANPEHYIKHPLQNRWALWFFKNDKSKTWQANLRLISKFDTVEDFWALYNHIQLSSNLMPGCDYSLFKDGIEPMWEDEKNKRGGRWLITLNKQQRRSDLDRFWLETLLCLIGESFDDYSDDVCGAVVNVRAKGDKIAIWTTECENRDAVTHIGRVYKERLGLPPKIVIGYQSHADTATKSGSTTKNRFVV
structure (smiles),measurement,setting,value
COc1cc(-c2[nH]ncc2CN2CCN(Cc3cccs3)CC2)cc(OC)c1OC,IC50,[1],50 µM (inactive)
Cc1ccc(C(C)C)c(OCc2nc(-c3nonc3N)no2)c1,IC50,[1],> 64 µM (inactive)
O=C(CSc1nnc[nH]1)Nc1ccc2c(c1)OCCO2,IC50,Leucine aminopeptidase,64.9 µM (active)
CCOC(=O)Cn1c(-c2nonc2NC(=O)c2ccccc2F)nc2ccccc21,CC50,[2],> 6.25 µM (active)
same,IC50,cells [3],4.57 µM (active)
same,IC50,Vero [4],0.98 µM (active)
CC(C)N(C(=O)c1sc2cc([N+](=O)[O-])ccc2c1Cl)C(C)C,IC50,[5],1.98 µM (not active)
Cc1ccccc1NC(=O)CCN1CCN(CCO)CC1,AC50,Escherichia coli,23.6 µM (active)
Cc1cnc(NC(=O)COc2cccc3c2OC(C)(C)C3)s1,CC50,Vero [6],> 25 µM (active)
same,CC50,[2],30.2 µM (active)
same,IC50,cells [3],22.2 µM (active)
same,IC50,Vero [4],13 µM (active)
CC(=O)c1cccc(NC(=O)c2nc(-c3ccccc3)oc2C)c1,IC50,[1],50 µM (inactive)
O=C(O)Cn1cc(/C=C2/SC(=O)N(CC(=O)N3CCCCCC3)C2=O)c2ccccc21,IC50,Aminopeptidase N,82.3 µM (active)
Cc1cccc(C)c1NC(=O)CSc1ncnc2nc[nH]c12,IC50,Leucine aminopeptidase,39.9 µM (active)
CCOC(=O)C1=C(NC(=S)NC(=O)c2ccccc2)c2ccccc2CC1C(C)C (centres undefined),EC50,BJ [7],> 150 µM (not active)
same,EC50,[8],60.6 µM (active)
same,CC50,Vero [6],> 25 µM (active)
same,CC50,[2],9.61 µM (active)
same,EC50,BJ [9],54.1 µM (inconclusive)
same,EC50,BJ [10],> 150 µM (not active)
same,IC50,cells [3],3.58 µM (active)
same,IC50,Vero [4],9.18 µM (active)
Cc1c(Cl)cccc1NC(=O)CCC(=O)NNC(=O)c1ccccc1Cl,IC50,[1],> 64 µM (inactive)
CCn1ncc(C2=NOC(C(=O)NCc3ccc(Cl)cc3)C2)c1C (centres undefined),IC50,[11],> 80 µM (inactive)
CC1CC(=O)N(CC(=O)Nc2ccc3c(c2)OCO3)c2ccccc2S1 (centres undefined),IC50,Leucine aminopeptidase,21.9 µM (active)
COc1ccccc1N1CCN(C(=O)CSc2nc(-c3ccccc3)cc(=O)[nH]2)CC1,IC50,Leucine aminopeptidase,16 µM (active)
Cc1ccc(C(C(=O)NC2CCCC2)N(C(=O)Cc2cccs2)c2ccc(C)c(C)c2)o1 (centres undefined),IC50,[5],10.9 µM (not active)
COc1cccc(/C=N/NC(=O)c2[nH]nc3c2CCc2ccccc2-3)c1O,IC50,[11],54 µM (inactive)
same,EC50,[12],1.49 µM (active)
same,AC50,INS1,0.796 µM (active)
same,AC50,HEK293,5.71 µM (active)
same,EC50,[13],9.81 µM (active)
same,EC50,cells [14],> 350 µM (not active)
same,EC50,cells [15],9.85 µM (active)
C=CCNC(=S)N/N=C/c1ccc(C(C)(C)C)cc1,IC50,[5],10.9 µM (not active)
C[C@H](CO)N1C[C@H](C)[C@H](CN(C)S(=O)(=O)c2ccc(Cl)cc2)OCCCC[C@H](C)Oc2ccc(NS(=O)(=O)c3ccc(Cl)cc3)cc2C1=O,AC50,[16],34.3 µM (active)
same,AC50,[17],58.9 µM (active)
same,AC50,Paired box protein Pax-8,5.86 µM (active)
